# Source: patent publication US12240844B2 (Voronoi, Inc., priority 2019, dated 2025)
# Experiments:
# human DYRK1A and Tau = experiment: Tau phosphorylation inhibition, ClariCELL Kinase Cell-Based Assay (Carnabio)
# Procedure, shortened: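 HEK293 cells transiently expressing human DYRK1A and Tau were exposed to compound, then lysed. Released Tau was captured on plate and its phosphorylation quantified by ELISA with a phospho-Tau-specific antibody.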
# SHP-77 = SHP-77 cancer cell proliferation inhibition (Cell Titer-Glo); type: cell-based; conditions: Homo sapiens, SHP77, SHP-77 small cell lung cancer cell line, 72 hours
# Procedure, shortened: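 GI50 comes from CellTiter-Glo luminescence, read 10 min after reagent addition at RT, following 72 h compound treatment. Eleven concentrations were used (⅓ steps, highest 10 μM final) on 2000 cells/well. MDA-MB-231 and MDA-MB-468 were grown in DMEM, SHP-77 in RPMI.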
SMILES,inhibition at 0.25 µM (human DYRK1A and Tau),inhibition at 0.5 µM (human DYRK1A and Tau),inhibition at 1 µM (human DYRK1A and Tau),GI50 (SHP-77)
"CCNc1cc(Nc2ccc(C(=O)N3CCC(N4CCOCC4)CC3)c3c2OCC3)nc2[nH]cc(C(F)(F)F)c12 [Example 90, (7-((4-(ethylamino)-3-(trifluoromethyl)-1H-pyrrolo[2,3-b]pyridin-6-yl)amino)-2,3-dihydrobenzofuran-4-yl)(4-morpholinopiperidin-1-yl)methanone]",23.3%,51.7%,70.3%,–
"O=C(c1ccc(Nc2cc(NC3CC3)c3c(C(F)(F)F)c[nH]c3n2)c2c1CCO2)N1CCC(N2CCOCC2)CC1 [Example 92, (7-((4-(cyclopropylamino)-3-(trifluoromethyl)-1H-pyrrolo[2,3-b]pyridin-6-yl)amino)-2,3-dihydrobenzofuran-4-yl)(4-morpholinopiperidin-1-yl)methanone]",27.5%,52.4%,77.2%,–
"O=C(c1ccc(Nc2cc(C3CC3)c3c(C(F)(F)F)c[nH]c3n2)c2c1CCO2)N1CCC(N2CCOCC2)CC1 [Example 93, (7-((4-cyclopropyl-3-(trifluoromethyl)-1H-pyrrolo[2,3-b]pyridin-6-yl)amino)-2,3-dihydrobenzofuran-4-yl)(4-morpholinopiperidin-1-yl)mthanone]",12%,28.8%,50.1%,–
"CCNc1cc(Nc2ccc(P3(=O)CCN(C4CCOCC4)CC3)cc2OC)nc2[nH]cc(C(F)(F)F)c12 [Example 94, 4-(4-((4-(ethylamino)-3-(trifluoromethyl)-1H-pyrrolo[2,3-b]pyridin-6-yl)amino)-3-methoxyphenyl)-1-(tetrahydro-2H-pyran-4-yl)-1,4-azaphosphinane 4-oxide]",22.2%,30.5%,53.2%,–
"CCNc1cc(Nc2ccc(S(=O)(=O)N3CCC(N4CCOCC4)CC3)c3c2OCCO3)nc2[nH]cc(C(F)(F)F)c12 [Example 96, N^4-ethyl-N^6-(8-((4-morpholonopiperidin-1-yl)sulfonyl)-2,3-dihydrobenzo [b] [1,4]dioxin-5-yl)-3-(trifluoromethyl)-1H-pyrrolo[2,3-b]pyridine-4,6-diamine]",11%,19.6%,52.8%,301 to 1000 nM
"COCCNc1cc(Nc2ccc(S(=O)(=O)N3CCC(N4CCOCC4)CC3)c3c2OCCO3)nc2[nH]cc(C(F)(F)F)c12 [Example 97, N^4-(2-methoxyethyl)-N^6-(8-((4-morpholonopiperidin-1-yl)sulfonyl)-2,3-dihydrobenzo[b] [1,4]dioxin-5-yl)-3-(trifluoromethyl)-1H-pyrrolo[2,3-b]pyridine-4,6-diamine]",22.3%,42%,67.2%,301 to 1000 nM
"CCNc1cc(Nc2ccc(C(=O)N3CCC(N4C[C@@H]5C[C@H]4CO5)CC3)c3c2OCC3)nc2[nH]cc(C(F)(F)F)c12 [Example 105, (4-((1S,4S)-2-oxa-5-azabicyclo[2.2.1]heptan-5-yl)piperidin-1-yl)(7-((4-(ethylamino)-3-(trifluoromethyl)-1H-pyrrolo[2,3-b]pyridin-6-yl)amino)-2,3-dihydrobenzofuran-4-yl)methanone]",60.2%,74%,92%,–
"CCNc1cc(Nc2ccc(C(=O)N3CCN(C4COC4)CC3)c3c2OCCO3)nc2[nH]cc(C(F)(F)F)c12 [Example 173, (8-((4-(ethylamino)-3-(trifluoromethyl)-1H-pyrrolo[2,3-b]pyridin-6-yl)amino)-2,3-dihydrobenzo[b] [1,4]dioxin-5-yl)(4-(oxetan-3-yl)piperazin-1-yl)methanone]",5.2%,28.2%,46.4%,–
"COc1cc(S(=O)(=O)N2CCC(N3CCOCC3)CC2)ccc1Nc1cc(NCCS(C)(=O)=O)c2c(C(F)(F)F)c[nH]c2n1 [Example 194, N^6-(2-methoxy-4-((4-morpholinopiperidin-1-yl)sulfonyl)phenyl)-N^4-(2-(methylsulfonyl)ethyl)-3-(trifluoromethyl)-1H-pyrrolo[2,3-b]pyridine-4,6-diamine]",–,–,–,301 to 1000 nM
"CNc1cc(Nc2ccc(C(=O)N3CC[C@@H](N4CCOCC4)C3)c3c2OCC3)nc2[nH]cc(C(F)(F)F)c12 [Example 214, (R)-(7-((4-(methylamino)-3-(trifluoromethyl)-1H-pyrrolo[2,3-b]pyridin-6-yl)amino)-2,3-dihydrobenzofuran-4-yl)(3-morpholinopyrrolidin-1-yl)methanone]",33.9%,60.1%,76.8%,–
"CNc1cc(Nc2ccc(C(=O)N3CC[C@H](N4CCOCC4)C3)c3c2OCC3)nc2[nH]cc(C(F)(F)F)c12 [Example 217, (S)-(7-((4-(methylamino)-3-(trifluoromethyl)-1H-pyrrolo[2,3-b]pyridin-6-yl)amino)-2,3-dihydrobenzofuran-4-yl)(3-morpholinopyrrolidin-1-yl)methanone]",50.2%,60.6%,84.5%,–
"O=C(c1ccc(Nc2cc(C3CC3)c3c(C(F)(F)F)c[nH]c3n2)c2c1OCCO2)N1CCC(N2CCOCC2)CC1 [Example 221, (8-((4-cyclopropyl-3-(trifluoromethyl)-1H-pyrrolo[2,3-b]pyridin-6-yl)amino)-2,3-dihydrobenzo [b] [1,4]dioxin-5-yl)(4-morpholinopiperidin-1-yl)methanone]",6.2%,24.7%,23%,–
"COc1cc(S(=O)(=O)N2CCOCC2)ccc1Nc1cc(C2CC2)c2c(C(F)(F)F)c[nH]c2n1 [Example 222, 4-cyclopropyl-N-(2-methoxy-4-(morpholinosulfonyl)phenyl)-3-(trifluoromethyl)-1H-pyrrolo[2,3-b]pyridin-6-amine]",–,–,–,301 to 1000 nM
"COc1cc(S(=O)(=O)N2CCOCC2)ccc1Nc1cc(C2CC2)c2c(C#N)c[nH]c2n1 [Example 227, 4-cyclopropyl-6-((2-methoxy-4-(morpholinosulfonyl)phenyl)amino)-1H-pyrrolo[2,3-b]pyridine-3-carbonitrile]",–,–,–,301 to 1000 nM
"COc1cc(S(=O)(=O)N2CCC(N3CCOCC3)CC2)ccc1Nc1cc(C2CC2)c2c(C#N)c[nH]c2n1 [Example 228, 4-cyclopropyl-6-((2-methoxy-4-((4-morpholinopiperidin-1-yl)sulfonyl)phenyl)amino)-1H-pyrrolo[2,3-b]pyridine-3-carbonitrile]",–,–,–,51 to 100 nM
"CNc1cc(Nc2ccc(S(=O)(=O)N3CCC(N4CCOCC4)CC3)c3c2OCCO3)nc2[nH]cc(C(F)(F)F)c12 [Example 233, N^4-methyl-N^6-(8-((4-morpholinopiperidin-1-yl)sulfonyl)-2,3-dihydrobenzo [b] [1,4]dioxin-5-yl)-3-(trifluoromethyl)-1H-pyrrolo[2,3-b]pyridine-4,6-diamine]",17.7%,34.6%,70.3%,301 to 1000 nM
"CNc1cc(Nc2ccc(C(=O)N3CCC(N4CCOCC4)CC3)c3c2OCC3)nc2[nH]cc(C(F)(F)F)c12 [Example 234, (7-((4-(methylamino)-3-(trifluoromethyl)-1H-pyrrolo[2,3-b]pyridin-6-yl)amino)-2,3-dihydrobenzofuran-4-yl)(4-morpholinopiperidin-1-yl)methanone]",41.8%,65.3%,81.5%,–
"CNc1cc(Nc2ccc(S(=O)(=O)N3CCC(N4C[C@H]5C[C@@H]4CO5)CC3)cc2OC)nc2[nH]cc(C(F)(F)F)c12 [Example 243, N^6-(4-((4-((1R,4R)-2-oxa-5-azabicyclo[2.2.1]heptan-5-yl)piperidin-1-yl)sulfonyl)-2-methoxyphenyl)-N^4-methyl-3-(trifluoromethyl)-1H-pyrrolo[2,3-b]pyridine-4,6-diamine]",64.4%,85%,104%,51 to 100 nM
"CCNc1cc(Nc2ccc(C(=O)N3CCC(N4C[C@H]5C[C@@H]4CO5)CC3)c3c2OCC3)nc2[nH]cc(C(F)(F)F)c12 [Example 244, (4-((1R,4R)-2-oxa-5-azabicyclo[2.2.1]heptan-5-yl)piperidin-1-yl)(7-((4-(ethylamino)-3-(trifluoromethyl)-1H-pyrrolo[2,3-b]pyridin-6-yl)amino)-2,3-dihydrobenzofuran-4-yl)methanone]",58%,86%,107%,–
"CCNc1cc(Nc2ccc(C(=O)N3CCN(C4COC4)CC3)c3c2OCC3)nc2[nH]cc(C(F)(F)F)c12 [Example 248, (7-((4-(ethylamino)-3-(trifluoromethyl)-1H-pyrrolo[2,3-b]pyridin-6-yl)amino)-2,3-dihydrobenzofuran-4-yl)(4-(oxetan-3-yl)piperazin-1-yl)methanone]",53.5%,76%,95.1%,–
"CCNc1cc(Nc2cc(F)c(S(=O)(=O)N3CCC(N4CCOCC4)CC3)cc2OC)nc2[nH]cc(C(F)(F)F)c12 [Example 266, N^4-ethyl-N^6-(5-fluoro-2-methoxy-4-((4-morpholinopiperidin-1-yl)sulfonyl)phenyl)-3-(trifluoromethyl)-1H-pyrrolo[2,3-b]pyridine-4,6-diamine]",–,–,–,301 to 1000 nM
